This is an account of results in patent US20240368135A1 (VERTEX PHARMACEUTICALS INCORPORATED, priority 2021, published 2024).

One test deals with human NaV 1.8 (Homo sapiens, UniProt Q9Y5Y9). Put plainly: E-VIPR assay detecting and measuring NaV inhibition properties. The test is classed as cell-based. As to conditions: HEK cells expressing truncated human NaV 1.8; in the presence of human serum (compound numbers followed by *); read-out: IC50 in the E-VIPR Assay, performed in the presence of human serum. Put shortly: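 HEK cells expressing truncated, fully active human NaV1.8, with KIR2.1 BacMam co-transduction, were loaded with CC2-DMPE/DiSBAC6(3) voltage-sensing dyes for 20 min at room temperature. Compounds were tested in 11-point 3-fold dilutions (300 nM top final), optionally with 25% human serum, under electrical stimulation with FRET read-out.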
Chain of human NaV 1.8 (Q9Y5Y9 126-399 limits assumed): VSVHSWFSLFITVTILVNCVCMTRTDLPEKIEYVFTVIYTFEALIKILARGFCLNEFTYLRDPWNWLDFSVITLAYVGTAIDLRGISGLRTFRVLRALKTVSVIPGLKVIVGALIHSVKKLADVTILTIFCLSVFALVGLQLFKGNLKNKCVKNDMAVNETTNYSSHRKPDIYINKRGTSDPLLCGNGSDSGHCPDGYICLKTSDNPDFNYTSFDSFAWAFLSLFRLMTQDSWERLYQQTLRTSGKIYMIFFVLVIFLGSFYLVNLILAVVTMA
Chain of human NaV 1.8 (Q9Y5Y9 660-890 limits assumed): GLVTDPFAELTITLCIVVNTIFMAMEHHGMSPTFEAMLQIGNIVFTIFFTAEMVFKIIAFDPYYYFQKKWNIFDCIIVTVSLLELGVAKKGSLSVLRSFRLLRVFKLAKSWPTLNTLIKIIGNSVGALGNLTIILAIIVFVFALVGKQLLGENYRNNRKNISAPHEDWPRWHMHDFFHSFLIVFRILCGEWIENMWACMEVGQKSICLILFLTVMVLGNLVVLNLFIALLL
Chain of human NaV 1.8 (Q9Y5Y9 1148-1722 limits assumed): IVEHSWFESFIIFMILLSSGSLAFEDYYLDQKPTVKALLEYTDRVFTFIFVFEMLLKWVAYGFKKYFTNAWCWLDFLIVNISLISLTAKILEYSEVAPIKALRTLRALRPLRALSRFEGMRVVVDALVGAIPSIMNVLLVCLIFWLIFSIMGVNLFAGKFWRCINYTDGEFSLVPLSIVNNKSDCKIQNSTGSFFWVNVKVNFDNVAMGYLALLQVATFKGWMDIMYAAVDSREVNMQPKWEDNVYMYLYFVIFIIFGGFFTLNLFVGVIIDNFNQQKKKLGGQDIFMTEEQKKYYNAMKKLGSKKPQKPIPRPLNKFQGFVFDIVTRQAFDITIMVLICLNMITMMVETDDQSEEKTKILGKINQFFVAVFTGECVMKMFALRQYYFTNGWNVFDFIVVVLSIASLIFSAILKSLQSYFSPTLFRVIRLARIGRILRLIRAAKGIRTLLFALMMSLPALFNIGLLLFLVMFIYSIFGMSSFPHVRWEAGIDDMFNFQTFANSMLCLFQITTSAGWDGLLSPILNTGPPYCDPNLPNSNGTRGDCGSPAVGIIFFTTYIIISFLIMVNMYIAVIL
Consider `COc1c(C2C(C(=O)Nc3ccnc(C(O)C(C)O)c3)OC(C)(C(F)(F)F)C2C)ccc(F)c1C` (single isomer, unassigned) [Compound 146], for which the IC50 is not below 1 µM. Still for that read-out and setting: for `COc1c(C2C(C(=O)Nc3ccnc(C(O)C(C)O)c3)OC(C)(C(F)(F)F)C2C)ccc(F)c1C` (single isomer, unassigned) [Compound 142] the value was not below 1 µM.

Still in this test, the particulars now being: HEK cells expressing truncated human NaV 1.8; no human serum; read-out: IC50 in the E-VIPR Assay.
As for `COc1c([C@H]2[C@H](C(=O)NCC3CN(C)C(=O)CO3)O[C@@](C)(C(F)(F)F)[C@H]2C)ccc(F)c1F` (stereo partly drawn) [Compound 290, (2R,3S,4S,5R)-3-(3,4-difluoro-2-methoxyphenyl)-4,5-dimethyl-N-((4-methyl-5-oxomorpholin-2-yl)methyl)-5-(trifluoromethyl)tetrahydrofuran-2-carboxamide], the IC50 was not below 1 µM. Turning to `COc1c([C@H]2[C@H](C(=O)Nc3ccc(C(N)=O)nc3)O[C@@](C)(C(F)(F)F)[C@H]2C)cc(O)c(F)c1F` [Compound 733, 5-((2R,3S,4S,5R)-3-(3,4-difluoro-5-hydroxy-2-methoxyphenyl)-4,5-dimethyl-5-(trifluoromethyl)tetrahydrofuran-2-carboxamido)picolinamide], the IC50 was less than 0.01 µM. As for `COCc1cc(NC(=O)C2OC(C)(C(F)(F)F)C(C)C2c2ccc(F)c(F)c2OC2CC(O)C2)ccn1` [Compound 664, (2R,3S,4S,5R)-3-(3,4-difluoro-2-((1S,3R)-3-hydroxycyclobutoxy)phenyl)-N-(2-(methoxymethyl)pyridin-4-yl)-4,5-dimethyl-5-(trifluoromethyl)tetrahydrofuran-2-carboxamide], the IC50 lay within 0.01 to 0.1 µM. Same read-out and setting: the same measure for `Cc1oncc1NC(=O)C1OC(C)(C(F)(F)F)C(C)C1c1ccc(F)c(F)c1OC1CC(O)C1` [Compound 656, (2R,3S,4S,5R)-3-(3,4-difluoro-2-((1S,3R)-3-hydroxycyclobutoxy)phenyl)-4,5-dimethyl-N-(5-methylisoxazol-4-yl)-5-(trifluoromethyl)tetrahydrofuran-2-carboxamide]: 0.01 to 0.1 µM; for `C[C@H]1[C@@H](c2ccc(F)c(F)c2OC(F)F)[C@H](C(=O)Nc2ccc(CCO)nc2)O[C@@]1(C)C(F)(F)F` (single isomer, unassigned) [Compound 460]: 0.01 to 0.1 µM. On the same count and under the same terms, the same measure for `C[C@H]1[C@@H](c2ccc(F)c(F)c2OCCOC(F)F)[C@H](C(=O)Nc2ccnc(CO)c2)O[C@@]1(C)C(F)(F)F` [Compound 641, (2R,3S,4S,5R)-3-(2-(2-(difluoromethoxy)ethoxy)-3,4-difluorophenyl)-N-(2-(hydroxymethyl)pyridin-4-yl)-4,5-dimethyl-5-(trifluoromethyl)tetrahydrofuran-2-carboxamide]: less than 0.01 µM. Same read-out and setting: for `C[C@H]1[C@@H](c2ccc(F)c(F)c2OCCN2CC3(COC3)C2)[C@H](C(=O)Nc2ccc3nncn3c2)O[C@@]1(C)C(F)(F)F` [Compound 620, (2R,3S,4S,5R)-3-(2-(2-(2-oxa-6-azaspiro[3.3]heptan-6-yl)ethoxy)-3,4-difluorophenyl)-N-([1,2,4]triazolo[4,3-a]pyridin-6-yl)-4,5-dimethyl-5-(trifluoromethyl)tetrahydrofuran-2-carboxamide] the value was 0.01 to 0.1 µM; for `COc1c([C@H]2[C@H](C(=O)Nc3cncc(CO)c3)O[C@@](C)(C(F)(F)F)[C@H]2C)ccc(F)c1F` [Compound 383, (2R,3S,4S,5R)-3-(3,4-difluoro-2-methoxyphenyl)-N-(5-(hydroxymethyl)pyridin-3-yl)-4,5-dimethyl-5-(trifluoromethyl)tetrahydrofuran-2-carboxamide], 0.01 to 0.1 µM; for `COc1c(C2C(C(=O)Nc3cnnc(CO)c3)OC(C)(C(F)(F)F)C2C)ccc(F)c1F` (centres unmarked) [Compound 18, 3-(3,4-difluoro-2-methoxy-phenyl)-N-[6-(hydroxymethyl)pyridazin-4-yl]-4,5-dimethyl-5-(trifluoromethyl)tetrahydrofuran-2-carboxamide], less than 0.01 µM.

`COc1c([C@H]2[C@H](C(=O)Nc3cn(C[C@H](O)CO)nc3C)O[C@@](C)(C(F)(F)F)[C@H]2C)ccc(F)c1F` [Compound 332, (2R,3S,4S,5R)-3-(3,4-difluoro-2-methoxy-phenyl)-N-[1-[(2S)-2,3-dihydroxypropyl]-3-methyl-pyrazol-4-yl]-4,5-dimethyl-5-(trifluoromethyl)tetrahydrofuran-2-carboxamide]: the IC50 is less than 0.01 µM. For `Cc1nocc1NC(=O)[C@@H]1O[C@@](C)(C(F)(F)F)[C@@H](C)[C@H]1c1ccc(F)c(F)c1OCCN1CC(F)C1` [Compound 625, (2R,3S,4S,5R)-3-(3,4-difluoro-2-(2-(3-fluoroazetidin-1-yl)ethoxy)phenyl)-4,5-dimethyl-N-(3-methylisoxazol-4-yl)-5-(trifluoromethyl)tetrahydrofuran-2-carboxamide], the IC50 was less than 0.01 µM. The same measure, in the same setting: the same measure for `Cc1nn(C(F)F)cc1NC(=O)[C@@H]1O[C@@](C)(C(F)(F)F)[C@@H](C)[C@H]1c1ccc(F)c(F)c1OCc1cn[nH]c1` [Compound 599, (2R,3S,4S,5R)-N-[1-(difluoromethyl)-3-methyl-pyrazol-4-yl]-3-[3,4-difluoro-2-(1H-pyrazol-4-ylmethoxy)phenyl]-4,5-dimethyl-5-(trifluoromethyl)tetrahydrofuran-2-carboxamide]: less than 0.01 µM; for `COc1c([C@H]2[C@H](C(=O)Nc3cn(C(F)F)nc3C)O[C@@](C)(C(F)(F)F)[C@H]2C)ccc(F)c1F` [Compound 311, (2R,3S,4S,5R)-3-(3,4-difluoro-2-methoxyphenyl)-N-(1-(difluoromethyl)-3-methyl-1H-pyrazol-4-yl)-4,5-dimethyl-5-(trifluoromethyl)tetrahydrofuran-2-carboxamide]: less than 0.01 µM; for `COc1c([C@H]2[C@H](C(=O)Nc3ccnc(C(C)(O)CO)c3)O[C@@](C)(C(F)(F)F)[C@H]2C)ccc(F)c1F` (relative stereo) [Compound 3, rel-(2R*,3S*,4S*,5R*)-3-(3,4-difluoro-2-methoxyphenyl)-N-(2-(1,2-dihydroxypropan-2-yl)pyridin-4-yl)-4,5-dimethyl-5-(trifluoromethyl)tetrahydrofuran-2-carboxamide]: less than 0.01 µM. Still for that read-out and setting: the same measure for `CNc1cc(NC(=O)[C@@H]2O[C@@](C)(C(F)(F)F)[C@@H](C)[C@H]2c2ccc(F)c(F)c2OC)ccn1` [Compound 387, (2R,3S,4S,5R)-3-(3,4-difluoro-2-methoxyphenyl)-4,5-dimethyl-N-(2-(methylamino)pyridin-4-yl)-5-(trifluoromethyl)tetrahydrofuran-2-carboxamide]: 0.01 to 0.1 µM.

Regarding `Cc1nocc1NC(=O)[C@@H]1O[C@@](C)(C(F)(F)F)[C@@H](C)[C@H]1c1ccc(F)c(F)c1OCCN1CC(C(F)F)C1` [Compound 629, (2R,3S,4S,5R)-3-(2-(2-(3-(difluoromethyl)azetidin-1-yl)ethoxy)-3,4-difluorophenyl)-4,5-dimethyl-N-(3-methylisoxazol-4-yl)-5-(trifluoromethyl)tetrahydrofuran-2-carboxamide], the IC50 fell in the range of 0.01 to 0.1 µM. The same measure, in the same setting: the same measure for `CNC(=O)COc1c([C@H]2[C@H](C(=O)Nc3cn(C(F)F)nc3C)O[C@@](C)(C(F)(F)F)[C@H]2C)ccc(F)c1F` [Compound 607, (2R,3S,4S,5R)-3-(3,4-difluoro-2-(2-(methylamino)-2-oxoethoxy)phenyl)-N-(1-(difluoromethyl)-3-methyl-1H-pyrazol-4-yl)-4,5-dimethyl-5-(trifluoromethyl)tetrahydrofuran-2-carboxamide]: 0.01 to 0.1 µM.

As for `COc1c([C@H]2[C@H](C(=O)Nc3ccnc(N4C[C@@H](C)N(C)CC4=O)c3)O[C@@](C)(C(F)(F)F)[C@H]2C)ccc(F)c1F` [Compound 470, (2R,3S,4S,5R)-3-(3,4-difluoro-2-methoxyphenyl)-N-(2-((R)-4,5-dimethyl-2-oxopiperazin-1-yl)pyridin-4-yl)-4,5-dimethyl-5-(trifluoromethyl)tetrahydrofuran-2-carboxamide], the IC50 is less than 0.01 µM.

`COc1c([C@H]2[C@H](C(=O)NCC#N)O[C@@](C)(C(F)(F)F)[C@H]2C)ccc(F)c1F` [Compound 277, (2R,3S,4S,5R)-N-(cyanomethyl)-3-(3,4-difluoro-2-methoxyphenyl)-4,5-dimethyl-5-(trifluoromethyl)tetrahydrofuran-2-carboxamide]: the IC50 is not below 1 µM. The same measure, in the same setting: the same measure for `COc1c(C2C(C(=O)Nc3ccnc(C(O)CO)c3)OC(C)(C(F)(F)F)C2C)ccc(F)c1F` (single isomer, unassigned) [Compound 46, 3-(3,4-difluoro-2-methoxy-phenyl)-N-[2-(1,2-dihydroxyethyl)-4-pyridyl]-4,5-dimethyl-5-(trifluoromethyl)tetrahydrofuran-2-carboxamide]: less than 0.01 µM. Still for that read-out and setting: the same measure for `COc1c([C@H]2[C@H](C(=O)NCC3CNC(=O)C3)O[C@@](C)(C(F)(F)F)[C@H]2C)ccc(F)c1F` (stereo partly drawn) [Compound 281, (2R,3S,4S,5R)-3-(3,4-difluoro-2-methoxyphenyl)-4,5-dimethyl-N-((5-oxopyrrolidin-3-yl)methyl)-5-(trifluoromethyl)tetrahydrofuran-2-carboxamide]: 0.1 to 1 µM; for `COc1c([C@H]2[C@H](C(=O)NC3CS(=O)(=O)C3)O[C@@](C)(C(F)(F)F)[C@H]2C)ccc(F)c1F` [Compound 309, (2R,3S,4S,5R)-3-(3,4-difluoro-2-methoxyphenyl)-N-(1,1-dioxidothietan-3-yl)-4,5-dimethyl-5-(trifluoromethyl)tetrahydrofuran-2-carboxamide]: not below 1 µM; for `COc1c([C@H]2[C@H](C(=O)Nc3cc(C(C)(N)CO)ncc3F)O[C@@](C)(C(F)(F)F)[C@H]2C)ccc(F)c1F` (single isomer, unassigned) [Compound 360]: less than 0.01 µM. Still for that read-out and setting: the same measure for `COc1c([C@H]2[C@H](C(=O)Nc3cncc(CO)n3)O[C@@](C)(C(F)(F)F)[C@H]2C)ccc(F)c1F` [Compound 382, (2R,3S,4S,5R)-3-(3,4-difluoro-2-methoxyphenyl)-N-(6-(hydroxymethyl)pyrazin-2-yl)-4,5-dimethyl-5-(trifluoromethyl)tetrahydrofuran-2-carboxamide]: 0.1 to 1 µM.
